# Assay results from ChEMBL document CHEMBL1201862, “PubChem BioAssay data set” (2004).
# Calls of active or inactive are those of the source.
# Columns and labels:
# [1] = TRPM1 promoter luciferase reporter signal decrease, dose response, MITF inhibitor project, cell-based, SK-MEL-5, dry powder, set 9 (AID 651588); format: functional
# [2] = A375 melanoma cell viability loss, dose response, counter-screen for MITF modulator project, CellTiter-Glo luminescence, dry powder, set 9 (AID 651591); format: functional, cell-based; conditions: A-375
# [3] = MALME3 melanoma cell viability reduction, dose response, orthogonal assay for MITF inhibitor project, CellTiter-Glo luminescence, dry powder, set 5 (AID 651584); format: functional, cell-based; conditions: MALME-3
# [4] = target: Nonstructural protein 1 (Influenza A virus, UniProt Q194T2); format: functional, Influenza A virus (A/California/07/2009(H1N1))
# [5] = SK-MEL-5 parental line viability, dose response, MITF inhibitor project, cell-based, CellTiter-Glo, dry powder, set 6 (AID 624429); format: functional
# [6] = MITF Measured in Cell-Based System Using Plate Reader - 2084-01_Inhibitor_Dose_DryPowder_Activity_Set7.; format: functional
# [7] = system: INS1; test: beta cell apoptosis inhibitors, cytokine rescue, dose response, luminescence, retest (AID 449756); format: functional, cell-based; conditions: Rattus norvegicus;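 further: cell death triggered by IL-1 beta plus TNF-alpha plus IFN-gamma mixture; protective hits raise ATP signal compared with cytokine alone wells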
# [8] = A375 melanoma cell cytotoxicity, dose response, counter-screen for MITF inhibitor project, CellTiter-Glo luminescence, dry powder, set 6 (AID 624488); format: functional, cell-based; conditions: A-375
# [9] = A375 melanoma cell viability loss, dose response, counter-screen for MITF inhibitor project, CellTiter-Glo luminescence, dry powder, set 4 (AID 624364); format: functional, cell-based; conditions: A-375;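 further: A375 melanoma cells are MITF independent so this is a counter screen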
# [10] = cytotoxicity in primary human melanocytes, dose response, cytotoxicity control, cell-based, plate reader, dry powder (AID 651920); format: functional
# [11] = MITF Orthogonal Assay: MALME3 CTG Assay Measured in Cell-Based System Using Plate Reader - 2084-04_Inhibitor_Dose_DryPowder_Activity_Set6.; format: functional; conditions: MALME-3
# [12] = MITF Measured in Cell-Based System Using Plate Reader - 2084-01_Inhibitor_Dose_DryPowder_Activity_Set6.; format: functional
# [13] = target: T1, Microphthalmia-associated transcription factor (Homo sapiens, UniProt O75030); test: TRPM1 promoter luciferase signal decrease, dose response, MITF inhibitor project, cell-based, SK-MEL-5, cherry-picked, set 3 (AID 493073); format: functional
# T1 sequence (O75030 whole entry): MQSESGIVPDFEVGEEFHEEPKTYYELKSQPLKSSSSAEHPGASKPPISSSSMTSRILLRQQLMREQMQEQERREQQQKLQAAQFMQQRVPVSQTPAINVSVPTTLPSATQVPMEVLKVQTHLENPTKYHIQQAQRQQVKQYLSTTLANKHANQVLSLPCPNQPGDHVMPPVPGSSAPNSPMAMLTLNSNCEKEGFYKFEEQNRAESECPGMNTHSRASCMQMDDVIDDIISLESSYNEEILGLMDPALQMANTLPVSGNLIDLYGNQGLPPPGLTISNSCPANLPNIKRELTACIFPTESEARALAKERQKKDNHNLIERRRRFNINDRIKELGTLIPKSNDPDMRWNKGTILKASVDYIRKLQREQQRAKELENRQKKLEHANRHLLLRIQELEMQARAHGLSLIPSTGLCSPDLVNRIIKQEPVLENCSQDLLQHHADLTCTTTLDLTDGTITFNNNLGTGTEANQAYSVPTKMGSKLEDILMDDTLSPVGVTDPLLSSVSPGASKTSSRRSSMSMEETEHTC
# [14] = A375 melanoma cell cytotoxicity, dose response, counter-screen for MITF inhibitor project, CellTiter-Glo luminescence, dry powder, set 7 (AID 624490); format: functional, cell-based; conditions: A-375
# [15] = MITF Orthogonal Assay: SK-MEL-5 CTG Assay Measured in Cell-Based System Using Plate Reader - 2084-02_Inhibitor_Dose_DryPowder_Activity_Set5.; format: functional
# [16] = SK-MEL-5 parental cell viability reduction, dose response, orthogonal assay for MITF inhibitor project, CellTiter-Glo luminescence, dry powder, set 8 (AID 651586); format: functional, cell-based
# [17] = target: Large T antigen (Simian virus 40, UniProt P03070); format: functional, Betapolyomavirus macacae;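 further: Confirmatory-stage PubChem screen for compounds that inhibit SV40 T antigen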
# [18] = target: Glutathione-S-transferase (Schistosoma japonicum, UniProt Q26513); test: biotin-GST/anti-GST TR-FRET signal inhibitors, dose response, artefact control for Vif-APOBEC3G degradation inhibitor project, biochemical (AID 1117362); format: functional
# [19] = target: T2, Protein Tat (Human immunodeficiency virus type 1 group M subtype B (isolate HXB2)(HIV-1), UniProt P04608); format: functional;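 further: tat binding to TAR RNA read out by fluorescence polarization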
# T2 sequence (P04608 whole entry): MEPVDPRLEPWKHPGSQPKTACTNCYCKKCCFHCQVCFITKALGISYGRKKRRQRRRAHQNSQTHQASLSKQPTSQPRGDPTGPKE
# [20] = target: Ephrin type-A receptor 4 (Mus musculus, UniProt Q03137); test: inhibitors of EphA4 binding to KYL peptide, primary screen, biochemical, colorimetric, mouse EphA4 (AID 689); format: functional
# [21] = target: Mucolipin-3 (Homo sapiens, UniProt Q8TDD5); test: Dose response cell-based high-throughput screening assay for agonists of the transient receptor potential channel ML3 (TRPML3). [Related pubchem assays: 1526, 1424, 1448 ]; format: functional
# [22] = target: Ion channel NompC (Danio rerio, UniProt Q7T1G6); test: Fluorescence counterscreen assay for TRPML3 agonists: dose response cell-based high-throughput screening assay to identify agonists of the transient receptor potential channel N1 (TRPN1). [Related pubchem assays: 1526, 1424, 1448 ]; format: functional
# [23] = Jurkat T cell cytotoxicity, dose response, cytotoxicity control for P. falciparum gametocyte viability project, luminescence (AID 1117277); format: functional, cell-based;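 further: potency reflects loss of cellular ATP meaning fewer viable cells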
# [24] = P. falciparum late gametocyte killing, dose response, luminescence (AID 1117278); format: functional, cell-based;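 further: gametocytes exposed to compound for 24 hours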
# [25] = cells; format: functional, cell-based; conditions: INS-1E
# [26] = Dose-response inhibition of insulin secretion in a rat insulinoma line at 5 mM glucose (AID 1117331); format: functional, cell-based; conditions: INS-1E
# [27] = half-maximal inhibitory concentration for glucagon-like peptide-1 release, STC-1 cell line, dose-response (AID 1117345); format: functional, cell-based
# [28] = Glucagon-like peptide 1 release potency, NCI-H716 cell line, dose-response, half-maximal inhibitory concentration (AID 1117344); format: functional, cell-based
# [29] = Luminescent dose response cell-based high throughput screening assay for inhibitors of the Janus kinase 2 mutant JAK2V617F. [Related pubchem assays: 1446 (Primary screen.), 1521 (Confirmation assay.), 1486 (Counter screen.)]; format: functional
# [30] = target: T3, E3 ubiquitin-protein ligase XIAP (Homo sapiens, UniProt P98170); test: XIAP antagonists, biochemical, IAP family, fluorescence polarization (AID 1018); format: functional
# [31] = target: T3, E3 ubiquitin-protein ligase XIAP; test: Counter Screen using XIAP-Bir3 for Chemical Antagonists of Bir1/2 domains of IAP-family anti-apoptotic proteins. [Related pubchem assays (depositor defined):AID1018, AID1449, AID1514, AID1638, AID1749, AID1750, AID488957, AID488963]
# [32] = system: H9c2; test: cells; format: functional, cell-based; conditions: Rattus norvegicus, H9c2, Myocardium;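 further: confirmatory concentration-response retest of ultra-high-throughput screening hits for modulation of myocardial damage; cell death induced by hydrogen peroxide oxidative stress; compound pretreatment for 60 min then peroxide exposure for 2 h; potency is for protecting the cells against peroxide damage rather than for killing them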
# T3 sequence (P98170 whole entry): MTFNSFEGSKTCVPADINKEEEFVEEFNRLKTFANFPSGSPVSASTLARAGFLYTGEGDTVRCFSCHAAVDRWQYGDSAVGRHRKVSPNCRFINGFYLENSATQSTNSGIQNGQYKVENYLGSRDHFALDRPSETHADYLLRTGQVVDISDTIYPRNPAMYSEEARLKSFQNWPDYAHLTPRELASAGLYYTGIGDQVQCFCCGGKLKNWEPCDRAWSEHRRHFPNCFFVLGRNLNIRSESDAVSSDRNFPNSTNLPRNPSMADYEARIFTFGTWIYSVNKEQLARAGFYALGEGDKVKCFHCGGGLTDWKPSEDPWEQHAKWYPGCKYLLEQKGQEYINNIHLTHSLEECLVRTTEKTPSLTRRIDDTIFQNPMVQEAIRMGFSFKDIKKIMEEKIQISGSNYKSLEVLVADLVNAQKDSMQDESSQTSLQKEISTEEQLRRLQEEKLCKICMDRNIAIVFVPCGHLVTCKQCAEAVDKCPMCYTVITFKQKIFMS
# Sequence of Large T antigen (P03070 whole entry): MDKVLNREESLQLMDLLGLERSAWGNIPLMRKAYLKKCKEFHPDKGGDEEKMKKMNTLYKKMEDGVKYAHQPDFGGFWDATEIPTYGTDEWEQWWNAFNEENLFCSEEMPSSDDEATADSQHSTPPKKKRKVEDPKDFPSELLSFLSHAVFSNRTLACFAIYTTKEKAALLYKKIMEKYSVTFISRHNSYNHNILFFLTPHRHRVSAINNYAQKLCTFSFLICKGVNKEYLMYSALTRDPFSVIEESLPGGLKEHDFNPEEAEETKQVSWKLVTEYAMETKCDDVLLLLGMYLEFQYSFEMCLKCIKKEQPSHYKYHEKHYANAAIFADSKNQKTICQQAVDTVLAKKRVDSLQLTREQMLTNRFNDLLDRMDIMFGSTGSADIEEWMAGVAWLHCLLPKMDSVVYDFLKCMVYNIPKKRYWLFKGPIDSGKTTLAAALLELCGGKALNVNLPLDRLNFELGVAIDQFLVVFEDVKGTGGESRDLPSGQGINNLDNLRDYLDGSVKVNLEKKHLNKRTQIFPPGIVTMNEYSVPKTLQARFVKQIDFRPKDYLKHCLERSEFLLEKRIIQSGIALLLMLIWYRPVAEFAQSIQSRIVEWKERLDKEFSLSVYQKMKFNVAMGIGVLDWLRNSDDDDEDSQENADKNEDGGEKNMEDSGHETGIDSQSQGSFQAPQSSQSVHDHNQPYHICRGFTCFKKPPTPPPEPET
# Sequence of Glutathione-S-transferase (Q26513 whole entry): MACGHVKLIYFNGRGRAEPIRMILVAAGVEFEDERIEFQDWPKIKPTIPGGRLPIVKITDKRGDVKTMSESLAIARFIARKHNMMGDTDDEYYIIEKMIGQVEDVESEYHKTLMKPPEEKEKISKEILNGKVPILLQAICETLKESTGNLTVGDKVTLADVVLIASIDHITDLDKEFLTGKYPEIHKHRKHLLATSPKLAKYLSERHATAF
# Sequence of Ephrin type-A receptor 4 (Q03137 whole entry): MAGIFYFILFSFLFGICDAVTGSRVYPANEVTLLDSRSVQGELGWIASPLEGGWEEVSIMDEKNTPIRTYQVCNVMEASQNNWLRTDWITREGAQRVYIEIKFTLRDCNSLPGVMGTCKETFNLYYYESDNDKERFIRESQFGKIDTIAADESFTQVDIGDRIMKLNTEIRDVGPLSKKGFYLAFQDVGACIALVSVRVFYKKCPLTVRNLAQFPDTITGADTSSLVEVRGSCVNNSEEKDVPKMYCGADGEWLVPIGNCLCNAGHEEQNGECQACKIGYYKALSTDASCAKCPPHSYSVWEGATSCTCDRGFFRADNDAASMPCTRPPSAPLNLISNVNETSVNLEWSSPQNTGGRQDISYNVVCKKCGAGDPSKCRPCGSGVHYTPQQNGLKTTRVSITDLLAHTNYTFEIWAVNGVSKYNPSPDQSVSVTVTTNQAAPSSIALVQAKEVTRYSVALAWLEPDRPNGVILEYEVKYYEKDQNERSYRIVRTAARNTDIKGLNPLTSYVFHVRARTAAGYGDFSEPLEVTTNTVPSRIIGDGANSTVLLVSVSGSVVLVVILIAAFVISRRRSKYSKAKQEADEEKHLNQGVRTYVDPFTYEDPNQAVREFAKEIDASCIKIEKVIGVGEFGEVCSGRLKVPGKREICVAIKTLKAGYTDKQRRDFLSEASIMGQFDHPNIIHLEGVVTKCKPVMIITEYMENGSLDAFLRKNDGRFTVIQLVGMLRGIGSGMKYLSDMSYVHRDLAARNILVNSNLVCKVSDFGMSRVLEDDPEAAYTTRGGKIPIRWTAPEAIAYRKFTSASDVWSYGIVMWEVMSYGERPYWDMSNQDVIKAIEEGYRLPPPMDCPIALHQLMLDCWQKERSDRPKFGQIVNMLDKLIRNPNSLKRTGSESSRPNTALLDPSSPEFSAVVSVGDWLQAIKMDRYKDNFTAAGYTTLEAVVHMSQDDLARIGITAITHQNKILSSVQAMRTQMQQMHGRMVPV
# Sequence of Ion channel NompC (Q7T1G6 whole entry): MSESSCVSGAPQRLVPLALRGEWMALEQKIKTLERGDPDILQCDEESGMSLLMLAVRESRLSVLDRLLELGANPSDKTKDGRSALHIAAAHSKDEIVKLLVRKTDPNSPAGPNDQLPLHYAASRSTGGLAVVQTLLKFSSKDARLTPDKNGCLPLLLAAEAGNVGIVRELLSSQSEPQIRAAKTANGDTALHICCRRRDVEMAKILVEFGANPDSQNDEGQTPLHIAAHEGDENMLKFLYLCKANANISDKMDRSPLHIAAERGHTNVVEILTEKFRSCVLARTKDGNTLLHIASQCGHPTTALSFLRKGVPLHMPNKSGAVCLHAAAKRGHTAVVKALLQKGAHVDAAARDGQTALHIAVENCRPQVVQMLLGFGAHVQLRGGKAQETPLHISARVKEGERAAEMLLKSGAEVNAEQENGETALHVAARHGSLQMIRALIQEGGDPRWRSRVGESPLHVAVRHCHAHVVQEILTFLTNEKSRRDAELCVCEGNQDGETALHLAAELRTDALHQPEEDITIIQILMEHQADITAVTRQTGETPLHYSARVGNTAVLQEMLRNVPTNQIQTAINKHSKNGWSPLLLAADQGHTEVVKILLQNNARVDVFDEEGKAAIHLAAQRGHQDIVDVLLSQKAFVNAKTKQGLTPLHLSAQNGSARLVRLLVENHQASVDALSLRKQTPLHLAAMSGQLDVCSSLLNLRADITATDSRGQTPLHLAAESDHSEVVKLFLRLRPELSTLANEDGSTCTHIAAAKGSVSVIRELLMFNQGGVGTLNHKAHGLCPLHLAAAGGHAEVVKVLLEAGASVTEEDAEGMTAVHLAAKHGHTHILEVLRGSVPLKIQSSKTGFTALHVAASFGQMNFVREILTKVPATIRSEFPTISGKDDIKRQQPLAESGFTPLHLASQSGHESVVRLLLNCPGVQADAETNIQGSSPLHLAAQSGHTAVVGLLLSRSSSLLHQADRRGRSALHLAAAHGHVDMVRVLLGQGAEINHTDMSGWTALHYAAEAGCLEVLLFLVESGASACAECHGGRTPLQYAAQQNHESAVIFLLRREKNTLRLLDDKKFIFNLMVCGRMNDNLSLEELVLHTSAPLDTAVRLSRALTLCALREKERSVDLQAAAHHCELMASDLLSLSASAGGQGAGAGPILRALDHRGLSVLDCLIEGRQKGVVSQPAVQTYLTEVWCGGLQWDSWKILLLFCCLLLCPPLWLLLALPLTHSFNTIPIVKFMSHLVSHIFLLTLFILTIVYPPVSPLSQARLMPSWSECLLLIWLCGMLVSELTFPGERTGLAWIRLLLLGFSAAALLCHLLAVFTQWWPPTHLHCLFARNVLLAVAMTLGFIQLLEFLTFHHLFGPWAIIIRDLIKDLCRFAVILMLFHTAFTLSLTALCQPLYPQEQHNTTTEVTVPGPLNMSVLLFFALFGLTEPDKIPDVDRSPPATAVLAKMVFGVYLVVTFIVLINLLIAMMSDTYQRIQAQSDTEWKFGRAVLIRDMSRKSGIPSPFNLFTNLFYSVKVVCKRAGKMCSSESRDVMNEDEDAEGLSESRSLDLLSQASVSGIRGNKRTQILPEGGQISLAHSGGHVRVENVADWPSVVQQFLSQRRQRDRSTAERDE
# Sequence of Nonstructural protein 1 (Q194T2 whole entry): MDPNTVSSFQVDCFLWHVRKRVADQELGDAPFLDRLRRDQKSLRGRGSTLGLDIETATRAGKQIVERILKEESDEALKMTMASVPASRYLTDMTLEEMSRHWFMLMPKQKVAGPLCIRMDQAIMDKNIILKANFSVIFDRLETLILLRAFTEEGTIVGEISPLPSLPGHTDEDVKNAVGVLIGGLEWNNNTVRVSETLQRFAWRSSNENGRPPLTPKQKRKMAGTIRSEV
# Sequence of Mucolipin-3 (Q8TDD5 whole entry): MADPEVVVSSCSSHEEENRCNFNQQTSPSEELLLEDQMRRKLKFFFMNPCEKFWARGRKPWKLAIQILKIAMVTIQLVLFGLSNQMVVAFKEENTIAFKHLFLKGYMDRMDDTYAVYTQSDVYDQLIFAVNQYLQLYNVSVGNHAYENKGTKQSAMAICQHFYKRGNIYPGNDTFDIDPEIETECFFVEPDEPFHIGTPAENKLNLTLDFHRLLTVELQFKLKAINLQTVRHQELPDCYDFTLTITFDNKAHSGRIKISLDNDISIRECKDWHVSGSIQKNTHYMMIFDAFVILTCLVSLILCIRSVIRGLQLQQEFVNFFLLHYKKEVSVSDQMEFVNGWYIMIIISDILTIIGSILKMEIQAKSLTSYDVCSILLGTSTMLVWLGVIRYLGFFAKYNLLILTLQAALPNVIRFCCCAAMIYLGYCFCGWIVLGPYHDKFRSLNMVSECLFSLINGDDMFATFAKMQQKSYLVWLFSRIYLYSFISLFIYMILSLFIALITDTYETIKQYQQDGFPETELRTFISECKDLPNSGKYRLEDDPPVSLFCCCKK
structure (smiles),measurement,setting,value
COC1=C(Nc2ccccc2)C(=O)c2ccccc2C1=O,AC50,[1],13.9 µM (active)
same,AC50,[2],> 70 µM (inactive)
same,AC50,[3],12.5 µM (active)
same,IC50,[4],12 µM (active)
same,AC50,[5],3.54 µM (active)
same,AC50,[6],7.24 µM (active)
same,AC50,[7],5.64 µM (active)
same,AC50,[8],43.4 µM (active)
same,AC50,[9],> 70 µM (inactive)
same,AC50,[10],41.9 µM (active)
same,AC50,[11],12.5 µM (active)
same,AC50,[12],5.17 µM (active)
same,AC50,[13],4.53 µM (active)
same,AC50,[14],41.5 µM (active)
same,AC50,[15],3.1 µM (active)
same,AC50,[16],6.45 µM (active)
CC(=O)N1CCN(c2ccc(NCc3ccc(C)s3)cc2)CC1,IC50,[17],3.48 µM (active)
same,IC50,[18],29.7 µM (active)
same,IC50,[19],> 100 µM (active)
CCCCOP(=O)(OCCCC)/C(C#N)=C(/C)O,IC50,[20],> 100 µM (not active)
CCN(C(=O)c1cnc(OC)cc1C(F)(F)F)c1ccc(Cl)cc1Cl,EC50,[21],4.59 µM (active)
same,EC50,[22],8.86 µM (active)
same,IC50,[23],> 83.3 µM (inactive)
same,IC50,[24],> 109 µM (inactive)
Oc1ccccc1 [PHENOL],IC50,[25],> 33.3 µM (inactive)
same,IC50,[26],> 33.3 µM (inactive)
CC(C)(C)CC(C)(C)c1ccc(O)c(Cc2ccc(Cl)cc2Cl)c1 [CLOFOCTOL],IC50,[27],0.544 µM (active)
same,IC50,[26],> 33.3 µM (inactive)
same,IC50,[28],9.07 µM (inactive)
COC(=O)/C=C/c1ccc(OC(=O)OC)c(OC(=O)OC)c1,IC50,[29],2.64 µM (active)
same,IC50,[17],12.1 µM (active)
same,IC50,[30],> 100 µM (not active)
same,IC50,[31],> 100 µM (inactive)
same,IC50,[32],> 79 µM (inactive)
